Test results from patent US9102648B1, “Bioavailable diacylhydrazine ligands for modulating the expression of exogenous genes via an ecdysone receptor complex” (Intrexon Corporation, priority 2003, dated 2015).
≈ marks a conversion by molar mass, not a printed value. Where two headings read alike, the source gives them in different places.

Key:
[1] = test system: mutated ecdysone receptor-based gene switch; test: In vivo SEAP induction, ligand by IP injection; design: species or system C57BL/6 mouse; settings: for Secreted Alkaline Phosphatase (percentage of GS ™-E ligand induction) Day 2 / Secreted Alkaline Phosphatase (percentage of GS ™-E ligand induction) Day 3 / Secreted Alkaline Phosphatase (percentage of GS ™-E ligand induction) Day 11: mouse serum; for Secreted Alkaline Phosphatase (percentage of GS ™-E ligand induction) Day 2: IP 2.6 μmol ligand 3 days after electroporation, day 2 after ligand; for Secreted Alkaline Phosphatase (percentage of GS ™-E ligand induction) Day 3 / Secreted Alkaline Phosphatase (percentage of GS ™-E ligand induction) Day 11: IP 2.6 μmol ligand; for Secreted Alkaline Phosphatase (percentage of GS ™-E ligand induction) Day 3: day 3 after ligand; for Secreted Alkaline Phosphatase (percentage of GS ™-E ligand induction) Day 11: day 11 after ligand
In short: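 Gene switch plasmids (receptor under CMV promoter) electroporated into quadriceps of C57BL/6 mice; 3 days later ligand given IP at 2.6 μmol or 26 nmol in 50 μL DMSO per mouse. Serum SEAP measured by chemiluminescence 2-11 days after dosing, averaged over four animals, expressed as % of GS™-E ligand induction.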

[2] = Partition coefficient Log (D), 1-octanol / pH 7.4 buffer; format: physicochemical; settings: water-saturated 1-octanol / pH 7.4 buffer, room temperature
In short: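 Octanol/pH 7.4 buffer partition at room temperature, compound added from 10 mM DMSO stock with 100 μM testosterone internal control; vortexed 60 min, centrifuged. Both layers diluted and quantified by LC/MS; Log D taken as log of the peak-area ratio.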

[3] = Aqueous equilibrium solubility in pH 7.4 buffer; settings: pH 7.4 aqueous phosphate buffer, pH 7.4, aqueous buffer, thermodynamic from solid
Protocol: Equilibrium solubility was measured in pH 7.4 aqueous buffer. The buffer was prepared by adjusting the pH of a 0.07 M solution of NaH2PO4 to pH 7.4 with 10 N NaOH. […] At least 1 mg of powder was combined with 1 mL of buffer to make >1 mg/mL mixture. These samples were shaken for ≧2 hours and left to stand overnight at room temperature. The samples were then filtered through a 0.45-μm Nylon syringe filter that was first saturated with the sample. The filtrate was sampled twice, consecutively. The filtrate was assayed by HPLC against standards prepared in methanol.

[4] = Determination of water solubility (de-ionized water, LC/MS); settings: kinetic from dmso stock
Protocol: Aqueous solutions are prepared as follows in triplicate: 50 μl of a 10,000 ppm solution (2,000 μg of solid dissolved in 200 μl of methanol) of the substrate in methanol or DMSO is added to 1 mL of de-ionized water in a 2 dram or smaller vial with magnetic stirring. Stirring is continued overnight at ambient temperature. The slurry is taken up into a syringe with a luer tip. The contents are passed through a new 13 mm 0.2 ρM Acrodisc filter (tuffryn or glass fiber) into an autosampler bottle. For preparation of calibration standard solutions: dilutions of the 10,000 ppm solution were prepared at 10, 5, 1, 0.5, and 0.2 ppm. […] For more soluble materials, dilution of the samples into this range is preferable to increasing the calibration range because the non-linearity of the response results in less useful calibration curves. However a shift in the range of calibration standards is required for very insoluble compounds.
Chromatography of the samples was then preformed. For most diacylhydrazines the following conditions were adequate for the measurement. Other columns and gradients may be substituted as appropriate.
Analysis of the test samples is conducted as follows: Each solubility replicate is analyzed in duplicate. […] Standard curves are obtained from duplicate injections of the standards. The concentration of the substrate is determined by calculation from the equation relating concentration and response.

[5] = Bi-directional permeability, CACO-2; format: in vitro ADME
In short: (§1)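 Caco-2 monolayers on Transwell membranes dosed at 10 μM, apical or basolateral side, in HBSS with 10 mM HEPES, 15 mM glucose, pH 7.0±0.2; 37° C. Receiver sampled at 1 and 2 hours, quantified by LC/MS; duplicate determinations, monolayer integrity checked by Lucifer yellow flux.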

Caco-2 monolayers = test: Bi-directional permeability, CACO-2; format: in vitro ADME
In short: as §1

[6] = Caco-2, pH 7, Percent Recovery Blank
[7] = human, Caco-2, pH 7, Papp, A-to-B Avg
[8] = human, Caco-2, pH 7, Papp, A-to-B Rep. 1
[9] = human, Caco-2, pH 7, Papp, A-to-B Rep. 2
[10] = human, Caco-2, pH 7, Papp, B-to-A Avg
[11] = human, Caco-2, pH 7, Papp, B-to-A Rep. 1
[12] = human, Caco-2, pH 7, Papp, B-to-A Rep. 2
[13] = human, Caco-2, pH 7, Percent Recovery A-to-B
[14] = human, Caco-2, pH 7, Percent Recovery B-to-A

Compound	Secreted Alkaline Phosphatase (percentage of GS ™-E ligand induction) Day 2 [1]	Secreted Alkaline Phosphatase (percentage of GS ™-E ligand induction) Day 3 [1]	Secreted Alkaline Phosphatase (percentage of GS ™-E ligand induction) Day 11 [1]	Log(D) Octanol/pH 7.4 [2]	solubility [3]	solubility kinetic [4]	Papp at 2 h, 10 µM ([5]; Caco-2, pH 7, Papp Blank)	recovery at 2 h, 10 μM [5, 6]	efflux ratio at 2 h, 10 μM ([5]; human, Caco-2, pH 7)	Papp A→B at 2 h, 10 µM [5, 7]	Papp A→B at 2 h, 10 µM [5, 8]	Papp A→B at 2 h, 10 µM [5, 9]	Papp B→A at 2 h, 10 µM [5, 10]	Papp B→A at 2 h, 10 µM [5, 11]	Papp B→A at 2 h, 10 µM [5, 12]	recovery at 2 h, 10 μM [5, 13]	recovery at 2 h, 10 μM [5, 14]	Significant Efflux (Caco-2 monolayers; Caco-2)	other results
CCc1ccc(C(=O)NN(C(=O)c2cc(C)cc(C)c2)C(C)(C)C)c(F)c1 [RG-101523, 3,5-Dimethyl-benzoic acid N-tert-butyl-N′-(4-ethyl-2-fluoro-benzoyl)-hydrazide]	85 percentage of GS ™-E ligand induction	79 percentage of GS ™-E ligand induction	1,116 percentage of GS ™-E ligand induction	2.9	1 µg/mL (≈ 2.7 µM)	13.4 µM (≈ 4.96 µg/mL)	29.4 ×10⁻⁶ cm/s	95%	1	25.4 ×10⁻⁶ cm/s	24.2 ×10⁻⁶ cm/s	26.6 ×10⁻⁶ cm/s	24.5 ×10⁻⁶ cm/s	23.6 ×10⁻⁶ cm/s	25.4 ×10⁻⁶ cm/s	95%	88%	No	–
CCc1c(OC)cccc1C(=O)NN(C(=O)c1cc(C)cc(C)c1)C(C)(C)C [RG-102240, N-(3-methoxy-2-ethylbenzoyl)-N′-(3,5-dimethylbenzoyl)-N′-tert-butylhydrazine]	100 percentage of GS ™-E ligand induction	100 percentage of GS ™-E ligand induction	100 percentage of GS ™-E ligand induction	3.4	0.7 µg/mL (≈ 1.83 µM)	9.8 µM (≈ 3.75 µg/mL)	–	–	–	–	–	–	–	–	–	–	–	–	Secreted Alkaline Phosphatase Day 2 ([1]; IP 130 nmol ligand): 652 ng/ml mouse sera; Secreted Alkaline Phosphatase Day 3 ([1]; IP 130 nmol ligand): 1,780 ng/ml mouse sera; Secreted Alkaline Phosphatase Day 7 ([1]; IP 130 nmol ligand): 139 ng/ml mouse sera; Papp at 2 h, 10 µM ([5]; Caco-2, pH 7, cell-free (blank) membrane, 10 μM, read-out: Papp Blank): 28.4 ×10⁻⁶ cm/s; recovery at 2 h, 10 μM ([5]; Caco-2, pH 7, cell-free (blank) membrane, 10 μM, read-out: Percent Recovery Blank): 78%; Papp A→B at 2 h, 10 µM ([5]; human, Caco-2, pH 7, Caco-2, 10 μM, average of 2 replicates, read-out: Papp, A-to-B Avg): 31.8 ×10⁻⁶ cm/s; Papp B→A at 2 h, 10 µM ([5]; human, Caco-2, pH 7, Caco-2, 10 μM, average of 2 replicates, read-out: Papp, B-to-A Avg): 23.5 ×10⁻⁶ cm/s; Papp A→B at 2 h, 10 µM ([5]; human, Caco-2, pH 7, Caco-2, 10 μM, replicate 1, read-out: Papp, A-to-B Rep. 1): 32.3 ×10⁻⁶ cm/s; Papp B→A at 2 h, 10 µM ([5]; human, Caco-2, pH 7, Caco-2, 10 μM, replicate 1, read-out: Papp, B-to-A Rep. 1): 23.3 ×10⁻⁶ cm/s; Papp A→B at 2 h, 10 µM ([5]; human, Caco-2, pH 7, Caco-2, 10 μM, replicate 2, read-out: Papp, A-to-B Rep. 2): 31.4 ×10⁻⁶ cm/s; Papp B→A at 2 h, 10 µM ([5]; human, Caco-2, pH 7, Caco-2, 10 μM, replicate 2, read-out: Papp, B-to-A Rep. 2): 23.7 ×10⁻⁶ cm/s; recovery at 2 h, 10 μM ([5]; human, Caco-2, pH 7, Caco-2, apical-to-basolateral, 10 μM, read-out: Percent Recovery A-to-B): 94%; recovery at 2 h, 10 μM ([5]; human, Caco-2, pH 7, Caco-2, basolateral-to-apical, 10 μM, read-out: Percent Recovery B-to-A): 87%; efflux ratio at 2 h, 10 μM ([5]; human, pH 7, Caco-2 efflux ratio, read-out: Papp B-A / Papp A-B Ratio): 0.7; Absorption Potential (Caco-2 monolayers; classification from Papp(A-to-B)): High (Papp(A-to-B) ≧ 1.0 × 10^−6 cm/s High); Significant Efflux (Caco-2 monolayers; classification from Papp(B-to-A) and ratio): No
CCC(N(NC(=O)c1cccc(C)c1C)C(=O)c1cc(C)cc(C)c1)C(C)(C)C (centres unmarked) [RG-103309, 3,5-dimethyl-benzoic acid N′-(2,3-dimethyl-benzoyl)-N-(1-ethyl-2,2-dimethyl-propyl)-hydrazide]	251 percentage of GS ™-E ligand induction	298 percentage of GS ™-E ligand induction	–	3.0	≤ 0.2 µg/mL	2.9 µM (≈ 1.14 µg/mL)	23.6 ×10⁻⁶ cm/s	70%	1.3	24.5 ×10⁻⁶ cm/s	25.2 ×10⁻⁶ cm/s	23.8 ×10⁻⁶ cm/s	32.5 ×10⁻⁶ cm/s	32.5 ×10⁻⁶ cm/s	32.5 ×10⁻⁶ cm/s	74%	75%	No	Secreted Alkaline Phosphatase Day 2 ([1]; IP 26 nmol ligand): 3,428 ng/ml mouse sera; Secreted Alkaline Phosphatase Day 3 ([1]; IP 26 nmol ligand): 2,800 ng/ml mouse sera; Secreted Alkaline Phosphatase Day 7 ([1]; IP 26 nmol ligand): 143 ng/ml mouse sera
COc1ccc(C(=O)N(NC(=O)c2ccc3c(c2C)OCCO3)C(C)(C)C)c(OC)n1 [RG-115517, 2,6-dimethoxy-nicotinic acid N-tert-butyl-N′-(5-methyl-2,3-dihydro-benzo[1,4]dioxine-6-carbonyl)-hydrazide]	4 percentage of GS ™-E ligand induction	3 percentage of GS ™-E ligand induction	–	2.9	14 µg/mL (≈ 32.6 µM)	36.7 µM (≈ 15.8 µg/mL)	31.6 ×10⁻⁶ cm/s	96%	0.9	28.8 ×10⁻⁶ cm/s	28.4 ×10⁻⁶ cm/s	29.3 ×10⁻⁶ cm/s	26.4 ×10⁻⁶ cm/s	25.2 ×10⁻⁶ cm/s	27.6 ×10⁻⁶ cm/s	91%	95%	No	–
